# Assay results as given in US20230348415A1, “BISPECIFIC ANTAGONISTS OF RETINOL-BINDING PROTEIN 4 THAT STABILIZE TRANSTHYRETIN TETRAMERS, THEIR PREPARATION, AND USE IN THE TREATMENT OF COMMON AGE-RELATED COMORBIDITIES” (The Trustees of Columbia University in the City of New York, priority 2020, published 2023).
# Entries after “also recorded” stand apart in the source; their conditions may differ.
# Tests used:
# [1] = Metabolic stability and clearance in cynomolgus monkey liver microsomes; type: in vitro ADME; settings: 30 minute incubation
# Protocol: (§1) The results of metabolic stability determinations for novel compounds and testosterone (positive control) were conducted in the presence of human, rat, mouse, and monkey liver microsomes. Values shown are percent of parent remaining after a 30 minute incubation. All measurements were done in duplicate. Assay results for testosterone were within an acceptable range.
# (§2) Mixed-gender human liver microsomes (Lot #1710084), male Sprague-Dawley rat liver microsomes (Lot #1610290), male CD-1 mouse liver microsomes (Lot #1710069), and male Cynomolgous liver microsomes (Lot #1510193) were purchased from XenoTech. The reaction mixture, minus NADPH, was prepared as described below. The test article was added into the reaction mixture at a final concentration of 1 μM. The control compound, testosterone, was run simultaneously with the test article in a separate reaction. An aliquot of the reaction mixture (without cofactor) was equilibrated in a shaking water bath at 37° C. for 3 minutes. The reaction was initiated by the addition of cofactor, and the mixture was incubated in a shaking water bath at 37° C. Aliquots (100 μL) were withdrawn at 0, 10, 20, 30, and 60. […] Half-lives were calculated using GraphPad software, fitting to a single-phase exponential decay equation.
# [2] = Metabolic stability and clearance in rat liver microsomes; type: in vitro ADME; settings: 30 minute incubation
# Protocol: as §1, §2
# serum RBP4 [3] = molecular target: T1, serum RBP4 (Mus musculus (Mouse), UniProt Q00724); assay: Serum RBP4 measurement after a single oral dose in mice; type: in vivo
# Protocol: FIG. 5. Pharmacokinetic and pharmacodynamic properties of (±)-44 in mice. (A) Serum RBP4 levels following a single 25 mg/kg oral administration of (±)-44. (B) Blood compound levels following administration of a single oral 5 mg/kg dose of (±)-44. Data represented as the mean±SD. Three mice per treatment group were used in the study.
# (§3) Blood samples were collected from a tail vein. Whole blood was drawn into a centrifuge tube and was allowed to clot at room temperature for 30 minutes followed by centrifugation at 2000 g for 15 minutes at […] to collect serum. Aliquots of plasma samples collected in the mouse pharmacokinetic study were analyzed for the RBP4 concentration using the RBP4 (mouse/rat) dual ELISA kit (AdipoGen, San Diego, CA) following the manufacturer's instructions. In adi-hRBP4 transgenic mouse experiments, blood samples were collected from a tail vein. […] Mouse serum RBP4 (produced predominantly in the liver) was measured using the RBP4 (mouse/rat) dual ELISA kit (AdipoGen, San Diego, CA; catalog number AG-45A-0012YTP-KI01)
# [4] = Metabolic stability and clearance in mouse liver microsomes; type: in vitro ADME; settings: 30 minute incubation
# Protocol: as §1, §2
# [5] = Metabolic stability and clearance in human liver microsomes; type: in vitro ADME
# Protocol: as §1, §2
# serum RBP4 [6] = molecular target: T1, serum RBP4; assay: Serum RBP4 after long-term oral dosing in Abca4−/−/Rdh8−/− mice; type: in vivo; settings: 25 mg/kg daily in chow
# Protocol: FIG. 9. Effect of the long-term oral (±)-44 administration in Abca4^−/−/Rdh8^−/− mice on serum RBP4 levels. Serum RBP4 levels were measured in vehicle-treated Abca4^−/−/Rdh8^−/− mice (squares) and (±)-44-treated Abca4^−/−/Rdh8^−/− mice (triangles) at the indicated time points. […] Error bars show S.D. Each data point on the graph represents a serum RBP4 concentration from an individual animal.
# as §3
# (±)-44 was formulated into a Picolab 5053 chow to ensure a daily dosing of 25 mg/kg of (±)-44. […] Following the 10 weeks of dosing, the eyecups of treated and untreated Abca4^−/−/Rdh8^−/− mice as well as the eyecups of the reference wild type mice were collected for the quantitative A2E analysis.
# Abca4−/−/Rdh8−/− mice = assay: Photoreceptor preservation (ONL thickness) in Abca4−/−/Rdh8−/− mice; type: in vivo, mouse; settings: 25 mg/kg daily in chow, 10 weeks
# Protocol: FIG. 11. Photoreceptor protection in (±)-44-treated Rdh8^−/−Abca4^−/− mice. […] Data analyzed by two-way ANOVA with Sidak post hoc test.
# (±)-44 was formulated into a Picolab 5053 chow to ensure a daily dosing of 25 mg/kg of (±)-44. Long-term 10-week dosing of the compound formulated into a chow was conducted in Abca4^−/−/Rdh8-mice. The age-matched control group of wild-type C57BL/6J mice was kept on a standard Picolab 5053 chow. After 10 weeks of dosing, whole eyes were collected and fixed in the 2% glutaraldehyde/4% paraformaldehyde. Eyes were embedded in paraffin and sectioned at a thickness of 8 μm. Sections were counterstained using hematoxylin and eosin (H&E). Morphologic observations and light microscopy was performed.
structure (smiles),measurement,setting,value
"Cc1cc(C(=O)O)nc(N2CCC(COc3ccccc3C(F)(F)F)C2)n1 (racemic) [Compound (±)-44, (±)-6-Methyl-2-(3-((2-(trifluoromethyl)phenoxy)methyl)pyrrolidin-1-yl)pyrimidine-4-carboxylic Acid]","Liver Microsomal Stability (% remaining at 30 min), cyno LM",[1],103%
same,"Liver Microsomal Stability (% remaining at 30 min), RLM",[2],93%
same,effect on serum TTR levels,"serum RBP4 [3]; compound dosing in mice, data not shown",no effect
same,maximum reduction in serum RBP4,"serum RBP4 [3]; single 25 mg/kg oral dose, 6 h after dose",81%
same,reduction in serum RBP4 at the 24 h time point,"serum RBP4 [3]; single 25 mg/kg oral dose, 24 h",64%
same,"Liver Microsomal Stability (% remaining at 30 min), MLM",[4],95%
same,"Liver Microsomal Stability (% remaining at 30 min), HLM",[5]; 30 minute incubation,105%
same,microsomal CLint at 1 μM,"[5]; both sexes, human liver microsomes, read-out: Microsomal CLint, H",< 0.0231 µL/min/mg
same,serum RBP4 reduction compared to untreated Abca4−/−/Rdh8−/− mice,serum RBP4 [6]; 10 weeks,84%
same,serum RBP4 reduction compared with baseline,"serum RBP4 [6]; week 10, Abca4−/−/Rdh8−/− mice",76%
same,photoreceptor protection (ONL thickness),Abca4−/−/Rdh8−/− mice,partially reversed; also recorded: Photoreceptor protection is evident at multiple points in the superior retina
